Data on one compound can be found in patent US8518890B2, “Remedies for sex hormone dependent disease” (Takeda Pharmaceutical Company Limited, priority 2002, dated 2013).

Holding throughout (assay): Effect on cell growth in the presence of androgen (cell count)
What all share (type): cell-based

One experiment has as its system MDA PCa 2b cells. As to conditions: 0.1 to 100 ng/mL testosterone, cells counted 4 days after addition, FIG. 2. As for the experimental part:
(§1) (Method) LNCaP-hr (cultured for 60 weeks in culture broth free of androgen) and LNCaP-FGC cells were plated on a 24 well plate at 40000 cells/mL/well, 0.01 to 10 ng/mL of testosterone was added the next day, and the cells were counted 3 days after the addition. In addition, MDA PCa 2b-hr (cultured for 61 weeks in culture broth free of androgen) and MDA PCa 2b cells were plated on a 24 well plate at 40000 cells/mL/well, 0.1 to 100 ng/mL of testosterone was added the next day, and the cells were counted 4 days after the addition. (Results) The growth of LNCaP-FGC and MDA PCa 2b was promoted by testosterone [FIGS. 1 and 2]. In contrast, the growth of LNCaP-hr and MDA PCa 2b-hr cells were suppressed by testosterone [FIGS. 1 and 2].

A further experiment concerns LNCaP-FGC cells. Particulars: 0.01 to 10 ng/mL testosterone, cells counted 3 days after addition, FIG. 1. The protocol: as §1
Experiment [1] deals with LNCaP-hr cells (highly androgen sensitive cell line). As to conditions: LNCaP-hr (cultured 60 weeks in androgen-free broth), 0.01 to 10 ng/mL testosterone, cells counted 3 days after addition, FIG. 1.
For experiment [2], the system named is MDA PCa 2b-hr cells (highly androgen sensitive cell line). Particulars: MDA PCa 2b-hr (cultured 61 weeks in androgen-free broth), 0.1 to 100 ng/mL testosterone, cells counted 4 days after addition, FIG. 2.

`C[C@]12CC[C@H]3[C@@H](CCC4=CC(=O)CC[C@@]43C)[C@@H]1CC[C@@H]2O` [testosterone]: the cell growth entry is listed as “promoted” with MDA PCa 2b cells, “promoted” with LNCaP-FGC cells, “suppressed” in experiment [1] and “suppressed” in experiment [2].
